Source: paper PMC12062745, “The immunostimulatory activity of Epimedium flavonoids involves toll-like receptor 7/8” (Frontiers in Pharmacology, 2025)

Legend:
Test in all cases: SPR (Biacore S200)
Format in all cases: binding
recombinant mouse TLR8 [1] = target: T1, recombinant mouse TLR8 (Mus musculus, UniProt P58682); details: read-out: KD8
T1 construct: recombinant from Escherichia coli supernatant
T1 sequence (P58682 24-1032): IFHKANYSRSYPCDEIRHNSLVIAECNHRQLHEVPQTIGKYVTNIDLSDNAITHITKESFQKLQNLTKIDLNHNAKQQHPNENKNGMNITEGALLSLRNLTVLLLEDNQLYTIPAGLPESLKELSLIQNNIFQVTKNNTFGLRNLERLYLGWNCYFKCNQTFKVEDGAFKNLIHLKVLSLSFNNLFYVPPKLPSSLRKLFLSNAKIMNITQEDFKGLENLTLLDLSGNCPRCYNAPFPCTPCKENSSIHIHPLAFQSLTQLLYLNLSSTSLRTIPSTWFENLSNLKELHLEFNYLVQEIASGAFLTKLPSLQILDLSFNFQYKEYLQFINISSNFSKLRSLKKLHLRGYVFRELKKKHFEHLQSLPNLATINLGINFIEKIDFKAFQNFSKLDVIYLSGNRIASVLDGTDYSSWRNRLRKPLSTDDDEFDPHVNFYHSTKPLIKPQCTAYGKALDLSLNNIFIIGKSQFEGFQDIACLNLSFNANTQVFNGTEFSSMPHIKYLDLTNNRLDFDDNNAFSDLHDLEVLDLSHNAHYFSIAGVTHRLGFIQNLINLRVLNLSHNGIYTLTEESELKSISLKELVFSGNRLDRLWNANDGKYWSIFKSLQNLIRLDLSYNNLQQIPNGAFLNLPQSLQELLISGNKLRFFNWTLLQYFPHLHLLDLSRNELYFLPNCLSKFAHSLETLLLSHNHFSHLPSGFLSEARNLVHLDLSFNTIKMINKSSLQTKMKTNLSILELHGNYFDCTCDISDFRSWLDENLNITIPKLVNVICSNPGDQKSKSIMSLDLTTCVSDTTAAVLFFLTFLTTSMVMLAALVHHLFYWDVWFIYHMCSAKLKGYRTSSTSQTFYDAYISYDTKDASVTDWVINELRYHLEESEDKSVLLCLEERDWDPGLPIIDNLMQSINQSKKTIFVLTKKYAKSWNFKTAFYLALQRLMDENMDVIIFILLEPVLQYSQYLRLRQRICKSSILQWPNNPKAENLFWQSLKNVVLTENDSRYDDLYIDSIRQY

recombinant mouse TLR7 = target: T2, recombinant mouse TLR7 (Mus musculus, UniProt P58681); details: 80 μM compound
T2 construct: recombinant from Escherichia coli supernatant
T2 sequence (P58681 27-1050): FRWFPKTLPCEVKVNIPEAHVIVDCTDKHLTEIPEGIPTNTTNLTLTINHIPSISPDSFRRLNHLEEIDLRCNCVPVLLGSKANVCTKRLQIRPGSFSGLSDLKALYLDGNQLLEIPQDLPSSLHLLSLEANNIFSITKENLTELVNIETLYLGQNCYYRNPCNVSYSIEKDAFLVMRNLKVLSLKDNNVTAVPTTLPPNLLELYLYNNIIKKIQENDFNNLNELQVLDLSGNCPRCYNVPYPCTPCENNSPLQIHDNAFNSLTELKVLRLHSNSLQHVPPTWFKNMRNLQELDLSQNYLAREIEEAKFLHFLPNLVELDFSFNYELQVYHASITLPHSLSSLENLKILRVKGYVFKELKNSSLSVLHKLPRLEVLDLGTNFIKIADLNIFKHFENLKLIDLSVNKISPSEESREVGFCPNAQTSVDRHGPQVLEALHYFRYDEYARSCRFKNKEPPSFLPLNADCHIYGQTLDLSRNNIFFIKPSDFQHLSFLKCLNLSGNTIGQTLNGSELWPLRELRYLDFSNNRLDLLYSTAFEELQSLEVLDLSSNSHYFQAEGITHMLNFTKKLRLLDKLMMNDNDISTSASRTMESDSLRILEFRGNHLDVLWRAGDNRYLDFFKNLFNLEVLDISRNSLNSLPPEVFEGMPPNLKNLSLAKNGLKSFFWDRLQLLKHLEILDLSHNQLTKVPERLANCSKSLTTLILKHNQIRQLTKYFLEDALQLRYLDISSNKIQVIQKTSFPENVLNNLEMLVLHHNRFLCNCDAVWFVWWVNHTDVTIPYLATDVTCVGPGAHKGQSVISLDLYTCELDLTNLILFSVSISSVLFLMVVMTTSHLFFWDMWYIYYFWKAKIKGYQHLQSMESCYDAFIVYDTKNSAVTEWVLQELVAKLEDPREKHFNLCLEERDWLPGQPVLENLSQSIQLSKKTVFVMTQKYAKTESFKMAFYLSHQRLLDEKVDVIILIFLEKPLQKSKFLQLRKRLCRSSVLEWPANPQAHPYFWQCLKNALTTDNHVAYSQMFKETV

recombinant mouse TLR8 [2] = target: T1, recombinant mouse TLR8; details: 80 μM compound

| Structure (SMILES) | Kd (recombinant mouse TLR8 [1]) | SPR (Biacore S200) (recombinant mouse TLR7) | response value (RU) (recombinant mouse TLR8 [2]) |
| --- | --- | --- | --- |
| COc1ccc(-c2oc3c(CC=C(C)C)c(O)cc(O)c3c(=O)c2O[C@@H]2O[C@@H](C)[C@H](O)[C@@H](O)[C@H]2O)cc1 [icariin II] | 10.3 µM | SPR analysis revealed that icariin II exhibited the highest binding response to TLR7 |  |
| COc1ccc(-c2oc3c(CC=C(C)C)c(O[C@@H]4O[C@H](CO)[C@@H](O)[C@H](O)[C@H]4O)cc(O)c3c(=O)c2O)cc1 [icariin I] |  |  | 43 RU |
